Assay results: the NIST ThermoML archive (doi:10.1016/j.jct.2016.08.026)
Numbers after ± are expanded uncertainties.

Columns and labels:
[1] = xn = mol fraction of the nth substance listed; conditions: 101 kPa, Liquid, Pycnometric method, x1 = 1
[2] = 101 kPa, Liquid, Pycnometric method

| Compound | mass density ([1]; 293.15 K) [kg/m3] | mass density ([1]; 298.15 K) [kg/m3] | mass density ([1]; 303.15 K) [kg/m3] | mass density ([1]; 308.15 K) [kg/m3] | mass density ([1]; 313.15 K) [kg/m3] | mass density ([1]; 318.15 K) [kg/m3] | mass density ([2]; 293.15 K) [kg/m3] | mass density ([2]; 298.15 K) [kg/m3] | mass density ([2]; 303.15 K) [kg/m3] | mass density ([2]; 308.15 K) [kg/m3] | mass density ([2]; 313.15 K) [kg/m3] | mass density ([2]; 318.15 K) [kg/m3] |
| --- | --- | --- | --- | --- | --- | --- | --- | --- | --- | --- | --- | --- |
| CC#N [acetonitrile] + C=CC(=O)OCC | 782.12 ± 1 | 776.82 ± 1 | 771.52 ± 1 | 766.21 ± 1 | 760.9 ± 1 | 755.59 ± 1 | – | – | – | – | – | – |
| CC#N [acetonitrile] + C=CC(=O)OCCCC | 782.12 ± 1 | 776.82 ± 1 | 771.52 ± 1 | 766.21 ± 1 | 760.9 ± 1 | 755.59 ± 1 | – | – | – | – | – | – |
| CC#N [acetonitrile] + C=CC(=O)OC | 782.12 ± 1 | 776.82 ± 1 | 771.52 ± 1 | 766.21 ± 1 | 760.9 ± 1 | 755.59 ± 1 | – | – | – | – | – | – |
| C=CC(=O)OC(C)(C)C [tert-butyl acrylate] | – | – | – | – | – | – | 884.13 ± 1 | 879.66 ± 1 | 875.2 ± 1 | 870.74 ± 1 | 866.28 ± 1 | 861.82 ± 1 |
| CC#N [acetonitrile] + C=CC(=O)OC(C)(C)C | 782.12 ± 1 | 776.82 ± 1 | 771.52 ± 1 | 766.21 ± 1 | 760.9 ± 1 | 755.59 ± 1 | – | – | – | – | – | – |
| CC#N [acetonitrile] | – | – | – | – | – | – | 782.12 ± 1 | 776.82 ± 1 | 771.52 ± 1 | 766.21 ± 1 | 760.9 ± 1 | 755.59 ± 1 |
